In patent US20020137929A1, “1 - (3-heterocyclylphenyl) isothiourea, -isourea, -guanidine and -amidine herbicidal agents” (Intellectual Property Department, BASF Aktiengesellschaft, priority 1998, published 2002):

Key:
[1] = tested on: ABUTH (Velvetleaf); assay: Postemergence herbicidal evaluation; format: in vivo, Abutilon theophrasti; settings: postemergence
In short: (§1)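 Compound is applied as a foliar spray to seedlings about two weeks old, formulated in equal parts acetone and water with 0.5% TWEEN 20 and delivered at 40 psi to give about 0.0156–0.500 kg per hectare. Injury is rated visually 0–9 after four to five weeks.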

[2] = tested on: IPOHE (Morningglory, Ivyleaf); assay: Postemergence herbicidal evaluation; format: in vivo, Ipomoea hederacea; settings: postemergence
In short: as §1

[3] = tested on: SETVI (Foxtail, Green); assay: Postemergence herbicidal evaluation; format: in vivo, Setaria viridis; settings: postemergence
In short: as §1

[4] = tested on: GLXMAW (Soybean, Williams); assay: Postemergence herbicidal evaluation; format: in vivo, Glycine max, (L.) Merr. cv Williams; settings: postemergence
In short: as §1

[5] = tested on: ZEAMX (Corn, Field); assay: Postemergence herbicidal evaluation; format: in vivo, Zea mays; settings: postemergence
In short: as §1

[6] = tested on: ABUTH (Velvetleaf); assay: Preemergence herbicidal evaluation; format: in vivo, Abutilon theophrasti; settings: preemergence, rated 4-5 weeks after treatment, 0-9 scale
In short: (§2)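 Visual 0-9 rating vs control (stand, vigor, malformation, size, chlorosis, overall appearance), scored 4-5 wk after spraying. Seeded soil cups were treated preemergence with compound in aqueous acetone, ~0.0156-0.500 kg/ha equivalent.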

[7] = tested on: AMBEL (Ragweed, Common); assay: Preemergence herbicidal evaluation; format: in vivo, Ambrosia artemisifolia; settings: preemergence, rated 4-5 weeks after treatment, 0-9 scale
In short: as §2

[8] = tested on: CASOB (Sicklepod); assay: Preemergence herbicidal evaluation; format: in vivo, Cassia obtusifolia; settings: preemergence, rated 4-5 weeks after treatment, 0-9 scale
In short: as §2

[9] = tested on: IPOHE (Morningglory, Ivyleaf); assay: Preemergence herbicidal evaluation; format: in vivo, Ipomoea hederacea; settings: preemergence, rated 4-5 weeks after treatment, 0-9 scale
In short: as §2

[10] = tested on: ECHCG (Barnyardgrass); assay: Preemergence herbicidal evaluation; format: in vivo, Echinochloa crus-galli; settings: preemergence, rated 4-5 weeks after treatment, 0-9 scale
In short: as §2

[11] = tested on: ECHORC (Watergrass (Calif.)); assay: Preemergence weed control under flooded paddy conditions; format: in vivo, Echinochloa oryzoides; settings: rated 3-4 weeks after treatment
In short: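 Ratings on a 0-9 visual scale cover stand, vigor, malformation, size, chlorosis and overall appearance relative to a control, taken three to four weeks post-treatment. Application was into flood water over freshly sown silt loam at roughly 0.0313 to 0.500 kg/ha.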

[12] = tested on: CYPSE (Flatsedge); assay: as above; format: in vivo, Cyperus serotinus; settings: rated 3-4 weeks after treatment
In short: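 Seeds or propagules sown in top 0.5 cm of silt loam soil, flooded 1.5 to 3 cm above surface throughout. Compound in 50/50 v/v aqueous/acetone pipetted into flood water at about 0.0313 to 0.500 kg/ha. Visual 0-9 rating versus control after three to four weeks in greenhouse.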

[13] = tested on: ECHORC (Watergrass (Calif.)); assay: Postemergence weed control under flooded paddy conditions; format: in vivo, Echinochloa oryzoides; settings: postemergence weeds, rated 3 to 4 weeks after treatment
In short: (§3)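 Herbicidal effect is judged by eye on a 0–9 scale versus control, 3–4 weeks after dosing. Dosing is into flood water kept 1.5–3 cm over the soil, at about 0.0313–0.500 kg/ha in aqueous/acetone 50/50 v/v, on 3–5 cm weeds and 1.5–2.5-leaf rice seedlings.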

[14] = tested on: CYPIR (Rice Flatsedge); assay: as above; format: in vivo, Cyperus iria; settings: postemergence weeds, rated 3 to 4 weeks after treatment
In short: as §3

For `C=CCN1C(=O)C(CC(N)=O)SC1=Nc1cc(-n2c(=O)cc(C(F)(F)F)n(C)c2=O)c(F)cc1Cl` (stereo not drawn) [Compound 99, 3-Allyl-2-{{2-chloro-5-[3,6-dihydro-3-methyl-2,6-dioxo-4-(trifluoromethyl)-1(2H)-pyrimidinyl]-4-fluorophenyl}imino}-4-oxo-5-thiazolidineacetamide], the “herbicidal rating ABUTH” value ([1]; rate 0.0156 kg/ha) was 9.0, the “herbicidal rating ABUTH” value ([1]; rate 0.0313 kg/ha) was 9.0 and the ABUTH herbicidal rating ([1]; rate 0.0625 kg/ha) was 9.0. The ABUTH herbicidal rating ([1]; rate 0.1250 kg/ha) was 9.0, the “herbicidal rating IPOHE” value ([2]; rate 0.0156 kg/ha) was 9.0 and the “herbicidal rating IPOHE” value ([2]; rate 0.0313 kg/ha) was 9.0. The IPOHE herbicidal rating ([2]; rate 0.0625 kg/ha) was 9.0, the IPOHE herbicidal rating ([2]; rate 0.1250 kg/ha) was 9.0 and the “herbicidal rating SETVI” value ([3]; rate 0.0156 kg/ha) was 6.0. The “herbicidal rating SETVI” value ([3]; rate 0.0313 kg/ha) was 7.0, the SETVI herbicidal rating ([3]; rate 0.0625 kg/ha) was 9.0 and the SETVI herbicidal rating ([3]; rate 0.1250 kg/ha) was 8.0. The “herbicidal rating GLXMAW” value ([4]; rate 0.0156 kg/ha) was 6.5, the “herbicidal rating GLXMAW” value ([4]; rate 0.0313 kg/ha) was 7.5 and the GLXMAW herbicidal rating ([4]; rate 0.0625 kg/ha) was 8.0. The GLXMAW herbicidal rating ([4]; rate 0.1250 kg/ha) was 8.0, the “herbicidal rating ZEAMX” value ([5]; rate 0.0156 kg/ha) was 5.0 and the “herbicidal rating ZEAMX” value ([5]; rate 0.0313 kg/ha) was 6.0. It also gave a ZEAMX herbicidal rating ([5]; rate 0.0625 kg/ha) of 7.5, a ZEAMX herbicidal rating ([5]; rate 0.1250 kg/ha) of 8.0 and an ABUTH rating ([6]; 0.0156 kg/ha) of 9.0. The ABUTH rating ([6]; 0.0313 kg/ha) was 9.0, the ABUTH rating ([6]; 0.0625 kg/ha) was 9.0 and the ABUTH rating ([6]; 0.1250 kg/ha) was 9.0. It also gave an ABUTH rating ([6]; 0.2500 kg/ha) of 9.0, an ABUTH rating ([6]; 0.5000 kg/ha) of 9.0 and an AMBEL rating ([7]; 0.0156 kg/ha) of 0.0. The AMBEL rating ([7]; 0.0313 kg/ha) was 0.0, the AMBEL rating ([7]; 0.0625 kg/ha) was 4.0 and the AMBEL rating ([7]; 0.1250 kg/ha) was 9.0. The AMBEL rating ([7]; 0.2500 kg/ha) was 9.0, the AMBEL rating ([7]; 0.5000 kg/ha) was 9.0 and the CASOB rating ([8]; 0.0156 kg/ha) was 0.0. For the same molecule, the CASOB rating ([8]; 0.0625 kg/ha) was 1.0, the CASOB rating ([8]; 0.1250 kg/ha) was 2.0 and the CASOB rating ([8]; 0.2500 kg/ha) was 3.0. The CASOB rating ([8]; 0.5000 kg/ha) was 7.0, the IPOHE rating ([9]; 0.0156 kg/ha) was 0.0 and the IPOHE rating ([9]; 0.0313 kg/ha) was 0.0. The IPOHE rating ([9]; 0.0625 kg/ha) was 9.0, the IPOHE rating ([9]; 0.1250 kg/ha) was 9.0 and the IPOHE rating ([9]; 0.2500 kg/ha) was 9.0. For the same molecule, the IPOHE rating ([9]; 0.5000 kg/ha) was 9.0, the ECHCG rating ([10]; 0.0156 kg/ha) was 0.0 and the ECHCG rating ([10]; 0.0313 kg/ha) was 0.0. The ECHCG rating ([10]; 0.0625 kg/ha) was 0.0, the ECHCG rating ([10]; 0.1250 kg/ha) was 1.0 and the ECHCG rating ([10]; 0.2500 kg/ha) was 1.0. For the same molecule, the ECHCG rating ([10]; 0.5000 kg/ha) was 7.0, the “ECHORC herbicidal effect rating” value ([11]; 0.0313 kg/ha) was 0.0 and the “ECHORC herbicidal effect rating” value ([11]; 0.0625 kg/ha) was 0.0. The “ECHORC herbicidal effect rating” value ([11]; 0.1250 kg/ha) was 0.0, the “ECHORC herbicidal effect rating” value ([11]; 0.2500 kg/ha) was 0.0 and the “ECHORC herbicidal effect rating” value ([11]; 0.5000 kg/ha) was 4.0. For the same molecule, the “CYPSE herbicidal effect rating” value ([12]; 0.0313 kg/ha) was 0.0, the “CYPSE herbicidal effect rating” value ([12]; 0.0625 kg/ha) was 0.0 and the “CYPSE herbicidal effect rating” value ([12]; 0.1250 kg/ha) was 0.0. For the same molecule, the “CYPSE herbicidal effect rating” value ([12]; 0.2500 kg/ha) was 0.0, the “CYPSE herbicidal effect rating” value ([12]; 0.5000 kg/ha) was 0.0 and the “Herbicidal rating ECHORC” value ([13]; Rate 0.0313 kg/ha) was 0.0. The “Herbicidal rating ECHORC” value ([13]; Rate 0.0625 kg/ha) was 0.0, the “Herbicidal rating ECHORC” value ([13]; Rate 0.1250 kg/ha) was 0.0 and the “Herbicidal rating ECHORC” value ([13]; Rate 0.2500 kg/ha) was 0.0. For the same molecule, the “Herbicidal rating ECHORC” value ([13]; Rate 0.5000 kg/ha) was 4.0, the “Herbicidal rating CYPIR” value ([14]; Rate 0.0313 kg/ha) was 0.0 and the “Herbicidal rating CYPIR” value ([14]; Rate 0.0625 kg/ha) was 0.0. The “Herbicidal rating CYPIR” value ([14]; Rate 0.1250 kg/ha) was 0.0, the “Herbicidal rating CYPIR” value ([14]; Rate 0.2500 kg/ha) was 0.0 and the “Herbicidal rating CYPIR” value ([14]; Rate 0.5000 kg/ha) was 0.0.
